Patent US20150283098A1, “PRENYLATED CHALCONE FORMULATION FOR THE TREATMENT OF BEES” (BIOACTIVE-TECH SP. Z O.O., priority 2012, published 2015)

Experiments:
[1] = system: bees; test: Example 3: viability of bee colonies poisoned with thiamethoxam (Actara) after xanthohumol spray; format: in vivo
Method: The experiment was carried out in Loma-Zawady Przedmieście, Poland in an apiary consisting of 25 colonies based in hives of Dadant type (frame 435×300 mm). The hives had wire-net, detachable bottom in the form of a diagnostic tray. The nest body of the hives consisted of 10 frames.
Bee colonies in the form of separated colonies were purchased from local producer. Each separated colony consisted of 3 frames of brood and frames with supply of bee bread and honey. All frames were settled in “black” by bees.
The experiments were carried out on 25 swarms of bees divided into VI groups. Groups I to V, consisted of 4 hives, each.
In groups I-V, xanthohumol at the concentration of 40 mg/l was used as a protective formulation. Actara at the concentration of 0.4 g/l was used for poisoning of insects (the concentration used in spraying of beetle).
Group IV—bee colonies treated with the protective preparation in the form of spray. Poisoning with Actara by alimentary route. 20 mg of xanthohumol were dissolved in 1 ml of ethyl alcohol and subsequently added to 0.5 l of sugar syrup in water in a ration 1:1 and four hives were sprayed with spraying machine so that one bee colony received a dose of 5 mg of xanthohumol. Poisoning with Actara given with 1:1 syrup (1 kg of sugar+1 l of water).
Group V—bee colonies treated with the protective preparation in the form of spray. Poisoning with Actara by contact route. 20 mg of xanthohumol were dissolved in 1 ml of ethyl alcohol and subsequently added to 0.5 l of sugar syrup in water in a ratio 1:1 and four hives were sprayed with the spraying machine so that one bee colony received a dose of about 5 mg of xanthohumol. Poisoning was carried out in the form of small-molecule spraying which was used for each frame with bees.
In this group, a formulation of different xanthohumol concentrations was used, and Actara (thiametoxam 25%) for poisoning of bees, at a dose of 0.2 g/l (concentration used by fruit farmers) was used. The control group were bees subjected only to spraying procedure with Actara.
Group VI a)—bees were protected with the formulation of xanthohumol concentration of 0.08 mg/l.
0.01 mg of xanthohumol was dissolved in 1 ml of ethyl alcohol and subsequently added to 0.125 l of sugar syrup in water in a ratio 1:1 and 1 hive was sprayed so that one a bee colony received a dose of about 0.01 mg of xanthohumol. After 24 hours, the bee colony was poisoned by a contact route. The poisoning was carried out in the form of small-molecule spraying which was used for each frame with bees.
Group VI b)—the bees were protected with the preparation of xanthohumol in concentration 1.6 mg/l.
0.2 mg of xanthohumol was dissolved in 1 ml of ethyl alcohol and subsequently added to 0.125 l of sugar syrup in water in a ratio 1:1 and 1 hive was sprayed so that one bee colony received a dose of about 0.2 mg of xanthohumol. After 24 hours, the bee colony was poisoned by the contact route. Poisoning was carried out in the form of small-molecule spraying which was applied on each frame with the bees.
Group VI c)—the bees were protected with a formulation of xanthohumol in concentration 16 mg/l.
2 mg of xanthohumol dissolved in 1 ml of ethyl alcohol which was added to 0.125 l of sugar syrup in water in a ration of 1:1 in duplicate and it was sprayed on 2 hives so that one bee colony received a dose of about 2 mg of xanthohumol. After 24 hours, the bee colonies were poisoned by the contact route. The poisoning was carried out if the form of a small-molecule spray which was applied on each frame with bees.
Group VI d)—the bees were protected with a preparation of xanthohumol concentration 8 g/1.
1 g of xanthohumol dissolved in 10 ml of ethyl alcohol which was then added to 0.125 l of sugar syrup in water in a ratio 1:1 and it was sprayed on 1 hive so that one bee colony received a dose of about 1000 mg of xanthohumol (1 hive). After 24 hours bee colony was poisoned by a contact route. […]

[2] = system: bees; test: Example 1: viability of bees in experimental queen cages with high concentration of imidaclopride; format: in vivo; conditions: 10 mg/l xanthohumol in syrup for three days, then imidaclopride (Kohinor 200 SL) 375 μl/l; controls died in 100%
Method: The experiment was carried out in Lublin, Poland in an apiary containing 250 bee colonies.
The influence of xanthohumol concentration in sugar syrup on the viability of bees was studied on samples of 100 bees placed in a special cage for studies, (FIG. 1). The bees were taking a protective formulation for three days in the form of xanthohumol dissolved in standard sugar syrup in three concentrations: 5, 10 and 20 mg of xanthohumol/1, respectively. Each concentration was studied in three independent small hives. After three days of taking the protective formulation, the bees received imidaclopride (in Kohinor 200 SL) in a concentration of 375 μl/l in a […] (similar doses are used for controlling of insects in vegetable cultivations). As a control group, three small hives of 100 bees each were used, which were not fed with xanthohumol containing preparation. All xanthohumol concentrations and the control group were studied in thriplicate. Xanthohumol obtained by chromatographic method from hop post-extraction waste was used. The purity of the preparation was ˜99% (FIG. 3).

[3] = system: bees; test: Example 3: effect of xanthohumol formulation itself on bee colonies (vigour, hygienic instinct, toxicity); format: in vivo
Method: Group III—bee colonies treated with the protective formulation in the form of spray without poisoning with Actara. 20 mg of xanthohumol were dissolved in 1 ml of ethyl alcohol and subsequently added to 0.5 l of sugar syrup in water in a ratio of 1:1, and four hives were sprayed with use of a spraying machine so that one bee colony received a dose of about 5 mg of xanthohumol. Actara was not used in this experiment.
1 g of xanthohumol dissolved in 10 ml of ethyl alcohol which was then added to 0.125 l of sugar syrup in water in a ratio 1:1 and it was sprayed on 1 hive so that one bee colony received a dose of about 1000 mg of xanthohumol (1 hive). After 24 hours bee colony was poisoned by a contact route. Poisoning was carried out in the form of small-molecule spray which was applied on each frame with bees.

[4] = system: bees; test: Stocking of a hive contaminated with a pesticide with a protected colony; format: in vivo; conditions: xanthohumol in syrup 2 g/l by spray; unprotected colony collapsed
Source text: Furthermore, it was found on the basis of the studies with the use of the formulation according to the invention, that there is a possibility of rehabilitating the protected bees in these regions which were contaminated by pesticides, where it has not been possible so far. In the hive where a control bee colony unprotected with the preparation was stocked with new unprotected colony, it collapsed within a short time. A hive contaminated with a pesticide is poisonous for bees even after several weeks.

[5] = system: Nosema spp.; test: Spraying of bee colonies in apiary infected with Nosemosis; format: in vivo; conditions: several days after spraying with formulation containing xanthohumol
Source text: (§1) (apis and cerenae). It was found on the basis of studies (initial results) that the amount of spores observed under a microscope after the use of Xn decreased by 60% on average in relation to control. Observation under a microscope of blended dead bees was related to counting of Nosema cells in the suspension of distilled water. […] The formulation was also investigated in several bee colonies in apiary infected with Nosemosis.

[6] = system: focal ischaemia caused by MCAO in rats; conditions: cited from earlier work
[7] = system: virus of sacbrood disease and mycosis and Nosemosis; test: Other studies in Poland: colonies with sacbrood disease, mycosis and Nosemosis; format: in vivo, bees; conditions: 5 mg per one bee colony
Method: The studies prowed that the formulation containing xanthohumol (at a dose of 5 mg per one bee colony) may be used also for the treatment of the virus of sacbrood disease and mycosis and Nosemosis. […] The increased hygienic instinct was shown by studies carried out on bee colonies by a dozen of beekeepers in Poland.

[8] = system: bees; test: Example 2: viability and behaviour of bees in apiary hives with low concentration of imidaclopride spray; format: in vivo
Method: Similar studies as described in example 1 were carried out in three bee hives containing ˜40,000 bees. Frames with bees (FIG. 4) were sprayed with imidaclopride dissolved in water at a concentration of 125 μl/l (microlitres per litre). It is a half of imidaclopride concentration in Kohinor 200 SL used in cultivation of vegetables in soil. The purpose of the study was to investigate low doses of imidaclopride to which mainly are exposed the bees collecting nectar during agrotechnological procedures.
The bees were studied in two groups. […] The studied group were bees which were given protective xanthohumol preparation in […] (milligram per litre) syrup for one week and then treated with imidaclopride spray at the above mentioned concentration (FIGS. 6A, 6B and 6C).

[9] = system: Nosema spp. (apis and cerenae); test: Counting of Nosema cells under a microscope in blended dead bees; format: in vivo
Source text: as §1

[10] = cited from earlier work

With `COc1cc(O)c(CC=C(C)C)c(O)c1C(=O)/C=C/c1ccc(O)cc1` [xanthohumol] the losses of bees ([1]; Group IV: xanthohumol 40 mg/l spray, Actara 0.4 g/l alimentary route after 24 hours) was 35%, the “memory / flights for pollen of surviving colonies” value ([1]; Group IV: xanthohumol 40 mg/l, Actara 0.4 g/l alimentary route) was “did not lose memory” and the losses of bees ([1]; Group V: xanthohumol 40 mg/l spray, Actara 0.4 g/l contact route after 24 hours) was 10%. The “memory / flights for pollen of surviving colonies” value ([1]; Group V: xanthohumol 40 mg/l, Actara 0.4 g/l contact route) was “did not lose memory and carried pollen”, the “behaviour of the colony” value ([1]; Group VI a survivors, a week after post-poisoning spraying with xanthohumol 1.6 mg/l, dose of 2 mg) was “returned to normal” and the “time until bees restarted flights around the hive” value ([1]; Group VI a survivors, sprayed after poisoning with xanthohumol 1.6 mg/l, dose of 2 mg) was 48 h. The “part of bee colony that did not survive” value ([1]; Group VI a: xanthohumol 0.08 mg/l (0.01 mg per colony), Actara 0.2 g/l contact after 24 hours) was 60%, the “restart of flights for pollen by surviving bees” value ([1]; Group VI a: xanthohumol 0.08 mg/l, Actara 0.2 g/l) was “did not restart flights for pollen either after 24 hours or 48 hours” and the “part of bee colony that did not survive” value ([1]; Group VI b: xanthohumol 1.6 mg/l (0.2 mf per colony), Actara 0.2 g/l contact) was “about 40%”. The “time until surviving bees restarted flights for pollen” value ([1]; Group VI b: xanthohumol 1.6 mg/l, Actara 0.2 g/l) was 48 h, the symptoms of poisoning ([1]; Group VI c: seven days from poisoning) was “do not show any symptoms of poisoning” and the survival of bees ([1]; Group VI c: xanthohumol 16 mg/l (2 mg per colony), Actara 0.2 g/l contact) was “almost all bees survived”. For the same molecule, the “time until surviving bees restarted flights for pollen” value ([1]; Group VI c: xanthohumol 16 mg/l, Actara 0.2 g/l) was 24 h, the symptoms of poisoning ([1]; Group VI d: after seven days) was “did not show any symptoms of poisoning” and the losses of bees ([1]; Group VI d: xanthohumol 8 g/l (1 g per colony), Actara 0.2 g/l) was 10%. For the same molecule, the bees survived ([1]; Group VI d: xanthohumol 8 g/l (1 g per colony), Actara 0.2 g/l contact after 24 hours) was 90%, the viability of bees [2] was roughly 45% and the “behaviour and hygienic instinct of bee colony” value ([3]; Group III: spray, xanthohumol 40 g/l, about 5 mg per colony, no Actara) was “improved the behaviour of bee colony and significantly influenced hygienic instinct of a bee”. The “Varroa destructor mites on the diagnostic tray” value ([3]; Group III: spray, xanthohumol 40 g/l, no Actara, not observed in control hives) was “Dead mites Varroa destructor were also observed”, the “symptoms increasing the vigour” value ([3]; Group VI a: 0.01 mg xanthohumol per colony) was “no symptoms increasing the vigour” and the “toxic effects of xanthohumol preparation on bees” value ([3]; Group VI d: 1 gram per hive (8 g/l), inspected 24 hours after use, before poisoning) was “did not cause any toxic effects”. For the same molecule, the “movement of bees at the beehive entrance” value ([3]; all studied concentrations of xanthohumol, compared to control hives) was “increased movement of bees was observed at the beehive entrance”, the “brooding of bee mothers compared with the control” value ([3]; first half of August, hives protected with the preparation) was “significant increase” and the “fate of protected colony put into pesticide-contaminated hive” value [4] was “still lived and did not show symptoms of poisoning”. The “typical symptoms of Nosema spp. infection (soiling of frames and front wall of the hive with feces)” value [5] was “disappeared”, the “area of brain ischaemic necrosis” value [6] was “significantly decreased” and the “effect in colonies with mycosis and Nosemosis” value [7] was “fast purification of the nest from dead insects occurred”. For the same molecule, the “effect in colonies with sacbrood disease” value [7] was “the colony started to work”, the behaviour of bees ([8]; two weeks after the administration of imidaclopride) was “did not show any differences in behaviour compared to the healthy hives” and the bees died ([8]; xanthohumol 10 mg/ml (milligram per litre) syrup for one week, then imidaclopride spray 125 μl/l) was roughly 10%. For the same molecule, the “time from spraying until bees started to fly to the pasture and bring pollen” value ([8]; xanthohumol syrup one week, imidaclopride spray 125 μl/l) was “Three”, the “decrease of amount of Nosema spores observed under a microscope in relation to control” value ([9]; after the use of Xn, on average, initial results) was 60% and the “number of Nosema pieces in suspension of blended dead bees” value ([9]; after using the formulation for 1 week, bees without Xn 30±3) was 8±2 pieces. For the same molecule, the water solubility [10] was “poor”.
